From EP0908457B1, “3-(1,2-benzisothiazol- and isoxazol-5-Y1)-2,4(1H,3H)-pyrimidinedione or thione and 3-(1,2-benzisothiazol- and isoxazol-5-y1)-4(3H)-pyrimidinone or thione herbicidal agents” (BASF AKTIENGESELLSCHAFT, priority 1997, dated 1999)

Experiments:
[1] = system: Echinochloa oryzoides (Ard.) Fritsch.; assay: Preemergence weed control under flooded paddy conditions, ECHORC (Watergrass (Calif.)); assay type: in vivo; conditions: flooded paddy; on herbicidal effect rating, ECHORC: meaning of each grade not given here
Cyperus iria = assay: Preemergence weed control under flooded paddy conditions, CYPIR (Rice Flatsedge); assay type: in vivo; conditions: flooded paddy; on herbicidal effect rating, CYPIR: meaning of each grade not given here
[2] = system: Cyperus serotinus, Rottb.; assay: Preemergence weed control under flooded paddy conditions, CYPSE (Flatsedge); assay type: in vivo; on herbicidal effect rating, CYPSE: meaning of each grade not given here
[3] = system: Monochoria vaginalis, Presl.; assay: Preemergence weed control under flooded paddy conditions, MOOVA (Monochoria); assay type: in vivo; conditions: flooded paddy; on herbicidal effect rating, MOOVA: meaning of each grade not given here
Sagittaria pygmaea, L. = assay: Preemergence weed control under flooded paddy conditions, SAGPY (Arrowhead (Pygmaea)); assay type: in vivo; conditions: flooded paddy; on herbicidal effect rating, SAGPY: meaning of each grade not given here
[4] = system: Oryza sativa, (L.) Tebonnet; assay: Rice tolerance to post-transplant applications under flooded paddy conditions (Example 187), ORYSAT (Rice, Tebonnet); on herbicidal effect rating ORYSAT: meaning of each grade not given here
[5] = Rate 0.0320 kg/ha, preemergence, rated three to four weeks after treatment
[6] = Rate 0.0620 kg/ha, preemergence, rated three to four weeks after treatment
[7] = Rate 0.1250 kg/ha, preemergence, rated three to four weeks after treatment
[8] = Rate 0.2500 kg/ha, preemergence, rated three to four weeks after treatment
[9] = Rate 0.5000 kg/ha, preemergence, rated three to four weeks after treatment
[10] = Rate 0.0320 kg/ha, rated three to four weeks after treatment
[11] = Rate 0.0620 kg/ha, rated three to four weeks after treatment
[12] = Rate 0.1250 kg/ha, rated three to four weeks after treatment
[13] = Rate 0.2500 kg/ha, rated three to four weeks after treatment
[14] = 0.0320 kg/ha, preemergence, rated three to four weeks after treatment
[15] = 0.0620 kg/ha, preemergence, rated three to four weeks after treatment
[16] = 0.1250 kg/ha, preemergence, rated three to four weeks after treatment
[17] = 0.2500 kg/ha, preemergence, rated three to four weeks after treatment
[18] = Rate 0.0320 kg/ha, preemergence weeds, rated three to four weeks after treatment
[19] = Rate 0.0620 kg/ha, preemergence weeds, rated three to four weeks after treatment
[20] = Rate 0.1250 kg/ha, preemergence weeds, rated three to four weeks after treatment
[21] = Rate 0.2500 kg/ha, preemergence weeds, rated three to four weeks after treatment
[22] = Rate 0.0320 kg/ha, preemergence, rated 3-4 weeks after treatment
[23] = Rate 0.0620 kg/ha, preemergence, rated 3-4 weeks after treatment
[24] = Rate 0.1250 kg/ha, preemergence, rated 3-4 weeks after treatment
[25] = Rate 0.2500 kg/ha, preemergence, rated 3-4 weeks after treatment

Compound: Cn1c(C(F)(F)F)cc(=O)n(-c2ccc3snc(/C=C/CBr)c3c2)c1=O [Example 360, 2,4(1H,3H)-Pyrimidinedione, 3-[3-(3-bromopropenyl)-1,2-benzisothiazol-5-yl]-1-methyl-6-(trifluoromethyl)-, (E)-]
- herbicidal effect rating, ECHORC [1, 5]: 0.0
- herbicidal effect rating, ECHORC [1, 6]: 2.0
- herbicidal effect rating, ECHORC [1, 7]: 5.0
- herbicidal effect rating, ECHORC [1, 8]: 7.5
- herbicidal effect rating, ECHORC [1, 9]: 9.0
- herbicidal effect rating, CYPIR (Cyperus iria; [5]): 0.0
- herbicidal effect rating, CYPIR (Cyperus iria; [6]): 2.5
- herbicidal effect rating, CYPIR (Cyperus iria; [7]): 9.0
- herbicidal effect rating, CYPIR (Cyperus iria; [8]): 9.0
- herbicidal effect rating, CYPIR (Cyperus iria; [9]): 9.0
- herbicidal effect rating, CYPSE [2, 5]: 0.0
- herbicidal effect rating, CYPSE [2, 6]: 0.0
- herbicidal effect rating, CYPSE [2, 7]: 0.0
- herbicidal effect rating, CYPSE [2, 8]: 9.0
- herbicidal effect rating, MOOVA [3, 5]: 4.5
- herbicidal effect rating, MOOVA [3, 6]: 4.5
- herbicidal effect rating, MOOVA [3, 7]: 4.5
- herbicidal effect rating, MOOVA [3, 8]: 9.0
- herbicidal effect rating, MOOVA [3, 9]: 9.0
- herbicidal effect rating, SAGPY (Sagittaria pygmaea, L.; [5]): 1.5
- herbicidal effect rating, SAGPY (Sagittaria pygmaea, L.; [6]): 4.5
- herbicidal effect rating, SAGPY (Sagittaria pygmaea, L.; [7]): 4.5
- herbicidal effect rating, SAGPY (Sagittaria pygmaea, L.; [8]): 9.0
- herbicidal effect rating, SAGPY (Sagittaria pygmaea, L.; [9]): 9.0
- herbicidal effect rating ORYSAT [4, 10]: 1.0
- herbicidal effect rating ORYSAT [4, 11]: 2.0
- herbicidal effect rating ORYSAT [4, 12]: 3.5
- herbicidal effect rating ORYSAT [4, 13]: 9.0
- herbicidal effect rating ORYSAT ([4]; Rate 0.5000 kg/ha, rated three to four weeks after treatment): 9.0

Compound: Cn1c(C(F)(F)F)cc(=O)n(-c2ccc3snc(C(C)(C)C(=O)O)c3c2)c1=O [Example 466, 1,2-Benzisothiazole-3-acetic acid, 5-[3,6-dihydro-3-methyl-2,6-dioxo-4-(trifluoromethyl)-1(2H)-pyrimidinyl]-alpha,alpha-dimethyl-]
- ECHORC herbicidal rating [1, 14]: 2.0
- ECHORC herbicidal rating [1, 15]: 4.0
- ECHORC herbicidal rating [1, 16]: 5.0
- ECHORC herbicidal rating [1, 17]: 7.0
- CYPIR herbicidal rating (Cyperus iria; [14]): 3.0
- CYPIR herbicidal rating (Cyperus iria; [15]): 3.0
- CYPIR herbicidal rating (Cyperus iria; [16]): 7.0
- CYPIR herbicidal rating (Cyperus iria; [17]): 9.0
- CYPSE herbicidal rating [2, 17]: 1.0
- MOOVA herbicidal rating [3, 14]: 7.0
- MOOVA herbicidal rating [3, 15]: 7.0
- MOOVA herbicidal rating [3, 16]: 9.0
- MOOVA herbicidal rating [3, 17]: 9.0
- SAGPY herbicidal rating (Sagittaria pygmaea, L.; [14]): 0.0
- SAGPY herbicidal rating (Sagittaria pygmaea, L.; [15]): 0.0
- SAGPY herbicidal rating (Sagittaria pygmaea, L.; [16]): 3.0
- SAGPY herbicidal rating (Sagittaria pygmaea, L.; [17]): 7.0
- ORYSAT herbicidal rating (rice tolerance) ([4]; 0.0320 kg/ha, rated three to four weeks after treatment): 4.0
- ORYSAT herbicidal rating (rice tolerance) ([4]; 0.0620 kg/ha, rated three to four weeks after treatment): 5.0
- ORYSAT herbicidal rating (rice tolerance) ([4]; 0.1250 kg/ha, rated three to four weeks after treatment): 7.0
- ORYSAT herbicidal rating (rice tolerance) ([4]; 0.2500 kg/ha, rated three to four weeks after treatment): 9.0

Compound: Cn1c(C(F)(F)F)cc(=O)n(-c2ccc3snc(C(=O)O)c3c2)c1=O [Example 315, 1,2-Benzisothiazole-3-carboxylic acid, 5-[3,6-dihydro-3-methyl-2,6-dioxo-4-(trifluoromethyl)-1(2H)-pyrimidinyl]-]
- herbicidal effect rating, ECHORC [1, 18]: 0.0
- herbicidal effect rating, ECHORC [1, 19]: 0.0
- herbicidal effect rating, ECHORC [1, 20]: 0.0
- herbicidal effect rating, ECHORC [1, 21]: 3.0
- herbicidal effect rating, CYPIR (Cyperus iria; [18]): 0.0
- herbicidal effect rating, CYPIR (Cyperus iria; [19]): 0.0
- herbicidal effect rating, CYPIR (Cyperus iria; [20]): 5.0
- herbicidal effect rating, CYPIR (Cyperus iria; [21]): 9.0
- herbicidal effect rating, CYPSE [2, 18]: 0.0
- herbicidal effect rating, CYPSE [2, 19]: 0.0
- herbicidal effect rating, CYPSE [2, 20]: 3.0
- herbicidal effect rating, CYPSE [2, 21]: 3.0
- herbicidal effect rating, MOOVA [3, 18]: 9.0
- herbicidal effect rating, MOOVA [3, 19]: 9.0
- herbicidal effect rating, MOOVA [3, 20]: 9.0
- herbicidal effect rating, MOOVA [3, 21]: 9.0
- herbicidal effect rating, SAGPY (Sagittaria pygmaea, L.; [18]): 0.0
- herbicidal effect rating, SAGPY (Sagittaria pygmaea, L.; [19]): 0.0
- herbicidal effect rating, SAGPY (Sagittaria pygmaea, L.; [20]): 3.0
- herbicidal effect rating, SAGPY (Sagittaria pygmaea, L.; [21]): 4.0
- herbicidal effect rating ORYSAT [4, 10]: 0.0
- herbicidal effect rating ORYSAT [4, 11]: 0.0
- herbicidal effect rating ORYSAT [4, 12]: 0.0
- herbicidal effect rating ORYSAT [4, 13]: 2.0

Compound: Cn1c(C(F)(F)F)cc(=O)n(-c2ccc3snc(/C=C/C(=O)c4ccccc4)c3c2)c1=O [Example 564, 2,4(1H,3H)-Pyrimidinedione, 1-methyl-3-[3-(3-oxo-3-phenylpropenyl)-1,2-benzisothiazol-5-yl]-6-(trifluoromethyl)-, (E)-]
- herbicidal effect rating, ECHORC [1, 22]: 4.0
- herbicidal effect rating, ECHORC [1, 23]: 4.0
- herbicidal effect rating, ECHORC [1, 24]: 5.0
- herbicidal effect rating, ECHORC [1, 25]: 7.0
- herbicidal effect rating, CYPIR (Cyperus iria; [22]): 6.0
- herbicidal effect rating, CYPIR (Cyperus iria; [23]): 6.0
- herbicidal effect rating, CYPIR (Cyperus iria; [24]): 7.0
- herbicidal effect rating, CYPIR (Cyperus iria; [25]): 9.0
- herbicidal effect rating, CYPSE [2, 22]: 0.0
- herbicidal effect rating, CYPSE [2, 23]: 0.0
- herbicidal effect rating, CYPSE [2, 24]: 0.0
- herbicidal effect rating, CYPSE [2, 25]: 4.0
- herbicidal effect rating, MOOVA [3, 22]: 9.0
- herbicidal effect rating, MOOVA [3, 23]: 9.0
- herbicidal effect rating, MOOVA [3, 24]: 9.0
- herbicidal effect rating, MOOVA [3, 25]: 9.0
- herbicidal effect rating, SAGPY (Sagittaria pygmaea, L.; [22]): 0.0
- herbicidal effect rating, SAGPY (Sagittaria pygmaea, L.; [23]): 0.0
- herbicidal effect rating, SAGPY (Sagittaria pygmaea, L.; [24]): 0.0
- herbicidal effect rating, SAGPY (Sagittaria pygmaea, L.; [25]): 0.0
- herbicidal effect rating ORYSAT ([4]; Rate 0.0320 kg/ha, rated 3-4 weeks after treatment): 0.0
- herbicidal effect rating ORYSAT ([4]; Rate 0.0620 kg/ha, rated 3-4 weeks after treatment): 0.0
- herbicidal effect rating ORYSAT ([4]; Rate 0.1250 kg/ha, rated 3-4 weeks after treatment): 0.0
- herbicidal effect rating ORYSAT ([4]; Rate 0.2500 kg/ha, rated 3-4 weeks after treatment): 0.0
